Measured values published in paper PMC7345095, “New Synthetic Nitro-Pyrrolomycins as Promising Antibacterial and Anticancer Agents” (Antibiotics, 2020).
Converted amounts (≈) assume the structure as drawn. Read-outs that look alike come from different tables or passages of the source.

Key:
[1] = tested on: Pseudomonas aeruginosa ATCC 10145; experiment: Kill curve assay (MBC), planktonic cells; type: cell-based; settings: for MBC: read-out: MBC P. aeruginosa
Method: (§1) Kill curve assays were performed to test the antimicrobial efficacy of pyrrolomycins (i.e., 1, 2, 5a, 5b, 5c, 5d), as well as that of the natural PM-C against the indicator pathogen Staphylococcus aureus ATCC 25923 and Pseudomonas aeruginosa ATCC 10145 strains. Briefly, a single colony of either S. aureus or P. aeruginosa strains was picked up and pre-cultivated (ca. 16 h) at 37 °C with shacking (160 rpm) in Luria Bertani medium (hereinafter named as LB and composed of (g L^−1): sodium chloride, 10; yeast extract, 5; tryptone, 10). The same medium was solidified by adding 15 g L^−1 of bacteriological agar when needed. Bacterial cells were then inoculated (1% v/v) in LB medium amended with increasing concentrations—ranging from 0 to 100 μM as initial concentration—of each pyrrolomycin tested, challenging the cultures for 24 h and incubating them as reported above. The actual number of viable colony forming units per milliliter of culture (CFU mL^−1) of each bacterial strain, who survived the challenge exerted by pyrrolomycins, was evaluated through the spot plate count method and compared to unchallenged cultures, as reported elsewhere. The data are reported as average values (n = 3) of CFU mL^−1 in the logarithmic (Log10) scale with standard deviation (SD). Evaluation of the MIC of PM-5c, and -5d against S. aureus and of PM-5d against P. aeruginosa was performed by incubating 1% (v/v) of an overnight bacterial suspension in LB medium in presence of increasing concentrations of the PMs. As a control, MIC of PM-C was measured. At the time of the inoculum and after overnight challenge, the absorbance of the cultures at 600 nm, which is an indirect way to measure the bacterial cell growth, was registered using a Spark™ 10 M multimode microplate reader measuring. The experiment was carried out in triplicate, being the absorbance corrected by subtracting that of the culture medium amended with the corresponding PM tested.

[2] = tested on: Staphylococcus aureus ATCC 25923; experiment: Kill curve assay (MBC), planktonic cells; type: cell-based; settings: for MBC: Staphylococcus aureus, read-out: MBC S. aureus
Method: as §1

P. aeruginosa = experiment: MIC by absorbance at 600 nm after overnight challenge; type: cell-based; settings: Pseudomonas aeruginosa, LB medium, absorbance 600 nm
Method: as §1

S. aureus = experiment: as above; type: cell-based; settings: Staphylococcus aureus, LB medium, absorbance 600 nm
Method: as §1

[3] = tested on: HCT116 colon cancer cell line; experiment: MTT viability assay; type: cell-based; settings: for IC50: MTT, 48 h of treatment; for C-SI (Cancer Selectivity Index), HCT116: ratio of IC50 of normal hTERT-RPE-1 to that of HCT116, first value of the cell
Method: (§2) The HCT116 colon cancer cell line (ATCC® CCL-247™), the MCF 7 breast cancer cell line (ATCC® HTB-22™) and the hTERT RPE-1 -immortalized retinal pigment epithelial cell line (ATCC® CRL-4000™) used in this study were cultured in DMEM medium (Gibco, Paisley, UK), supplemented with 1% glutamine, 10% heat-inactivated fetal bovine serum and 100U/mL penicillin and 100 μg/mL streptomycin, as already described, and maintained at 37 °C and 5% CO2.
(§3) Cells were plated at 5 × 10^3 cells/well in 96-well plates and incubated for 24 h prior to treatment for further 48 h of different concentrations of PMs. After incubation, a sample of 20 μL of Thiazolyl Blue Tetrazolium Bromide (5 mg mL^−1) in PBS was added to each well and cultured for 2h at 37 °C in CO2 incubator. After removing the medium containing MTT and three washes with PBS, 100 μL of warm DMSO was added to each well to dissolve formazan. Samples were shaken for 10 min, at room temperature in the dark, and the absorbance was recorded at 570 nm using a microplate reader (Spark® 20M Tecan Trading AG, Switzerland). Percentage of cell viability with respect to untreated control cells (vehicle control) was calculated after subtraction of the blank. The IC50 values, that is the concentration necessary to inhibit the 50% of cell growth, was calculated using a dose-response model, obtained from sigmoidal fitting of response curves of percent inhibition versus logarithmic concentration of PMs, using Graph Pad Prism software. Each result represents the mean value of three different experiments performed in triplicate.

[4] = tested on: MCF 7 breast cancer cell line; experiment: MTT viability assay; type: cell-based; settings: for IC50: MTT, 48 h of treatment; for C-SI (Cancer Selectivity Index), MCF 7: ratio of IC50 of normal hTERT-RPE-1 to that of MCF 7, second value of the cell
Method: as §2, §3

[5] = tested on: hTERT RPE-1 immortalized retinal pigment epithelial cell line; experiment: MTT viability assay (cytotoxicity on normal cells); type: cell-based; settings: read-out: IC50 hTERT-RPE-1
Method: as §2, §3

[6] = tested on: HCT116 and MCF 7 cancer cell lines; experiment: MTT viability assay, statements over both cancer cell lines; type: cell-based; settings: for IC50: MTT, 48 h challenge, group statement, read-out: IC50, regardless of the cancer cell line (HCT116, MCF 7); for C-SI, mean value among the two cancer cell lines: mean of HCT116 and MCF 7 C-SI
Method: as §2, §3

P. aeruginosa cells = experiment: AO/EB double staining of bacterial cells; type: cell-based, Pseudomonas aeruginosa; settings: 24 h
Method: It is noteworthy to highlight that the main difference between PM-C and 5d relies only on the presence of the nitro group in the position R3 of the latter, which is likely responsible for its enhanced electronegativity and, therefore, better biological reactivity over PM-C.
Figure 3 Fluorescence micrographs of P. aeruginosa cells treated for 24 h with 100 μM of PM-C or 10 μM of PM 5d after AO/EB double staining. Control represents untreated cells. Green (AO) are viable cells, red (EB) dead cells, and orange vital cells with damaged membranes.

HCT116 cells [7] = experiment: Morphological assessment, phase contrast inverted microscope; type: cell-based; settings: 0.1 µM (sub-inhibitory), 24 h
Method: HCT116 cells were seeded in 24 well culture plates with a cell density of 1 × 10^5 cells/well. After 24 h cells were incubated for 24 h with different concentration of the selected PMs, and observed under a phase contrast inverted microscope (Carl Zeiss) at 200× magnification, for morphological changes assessment.

HCT116 cells [8] = experiment: Acridine orange/ethidium bromide (AO/EB) staining; type: cell-based; settings: for AO/EB fluorescence of treated HCT116 cells (type of cell death): treated at IC50 for 24 and 48 h
From the text: Cells were immediately observed under a fluorescent microscopy (Carl Zeiss) at 630 × magnification.

Escherichia coli = tested on: Escherichia coli; set-up: method as in PMID 31405863, PMID 15730262; settings: natural PMs; cited from earlier work

| Structure (SMILES) | MIC (P. aeruginosa) [µM] | MIC (S. aureus) [µM] | IC50 ([3]; Homo sapiens, HCT-116, 48 h) [nM] | C-SI (Cancer Selectivity Index), HCT116 [3] | IC50 ([4]; Homo sapiens, MCF7, 48 h) [nM] | C-SI (Cancer Selectivity Index), MCF 7 [4] | IC50 [6] [nM] | C-SI, mean value among the two cancer cell lines [6] | morphology of treated HCT116 cells (HCT116 cells [7]) | AO/EB fluorescence of treated HCT116 cells (type of cell death) (HCT116 cells [8]) | also measured |
| --- | --- | --- | --- | --- | --- | --- | --- | --- | --- | --- | --- |
| O=C(c1cc(Cl)cc(Cl)c1O)c1[nH]c(Cl)c(Cl)c1[N+](=O)[O-] [PM 5d, (3,5-Dichloro-2-hydroxyphenyl)(4,5-dichloro-3-nitro-1H-pyrrol-2-yl)methanone] | > 20 | 2 (≈ 0.74 µg/mL) | 1560 | 143.3 | 1570 ± 390 | 143.4 | 800 to 2250 | 143 | more fibroblastic and less clumped morphology | orange fluorescence | MBC ([1]; Pseudomonas aeruginosa, ATCC10145, minimal bactericidal concentration, planktonic cells, 24 h challenge, LB medium): 30 µM (≈ 11.1 µg/mL); B-SI (Bacterial Selectivity Index), P. aeruginosa ([1]; ratio of IC50 of normal hTERT-RPE-1 to MBC of P. aeruginosa, first value of the cell): 7.5; MBC ([2]; ATCC25923, minimal bactericidal concentration, planktonic cells, 24 h challenge, LB medium): 7.5 µM (≈ 2.77 µg/mL); B-SI (Bacterial Selectivity Index), S. aureus ([2]; ratio of IC50 of normal hTERT-RPE-1 to MBC of S. aureus, second value of the cell): 30; IC50 [3]: 1600 ± 200 nM; IC50 [4]: 1600 ± 400 nM; IC50 ([5]; hTERT-RPE1, MTT, 48 h of treatment, normal epithelial cells): 225 ± 22.7 µM; AO/EB staining colour of P. aeruginosa cells (P. aeruginosa cells; 10 μM (sub-inhibitory)): either orange (indicating that cell membranes were damaged due to the entrance of EB) or red (indicating not viable cells); late apoptosis by AO/EB staining, HCT116 (HCT116 cells [8]; treated at IC50, after 48 h): reddish orange cells |
| O=C(c1cc(Cl)c(Cl)[nH]1)c1cc(Cl)cc(Cl)c1O [PM-C, reference compound] | > 40 | 1 (≈ 0.325 µg/mL) | 800 ± 300 | 10.4 | 1500 ± 400 | 5.5 | 800 to 2250 | 8 | more fibroblastic and less clumped morphology | orange fluorescence | MBC ([1]; Pseudomonas aeruginosa, ATCC10145, 24 h): > 100 µM; log reduction in the number of viable CFUs, P. aeruginosa ([1]; highest concentration tested 100 μM, 24 h): did not display any antimicrobial effect; MBC ([1]; minimal bactericidal concentration, planktonic cells, 24 h challenge, LB medium): >100 µM; MBC ([2]; ATCC25923, 24 h): 90 µM (≈ 29.2 µg/mL); decrease in the number of vital S. aureus cells ([2]; increasing concentrations up to 80 μM, 24 h): ~ 3 log; IC50 ([5]; hTERT-RPE1, 48 h): 8.3 ± 1.9 µM; AO/EB staining colour of P. aeruginosa cells (P. aeruginosa cells; 100 μM): appeared green; MIC against Escherichia coli (Escherichia coli): more than 300 μM |
